{"source": "paper PMC7559923", "about": "“In Vitro Modeling of Bradykinin-Mediated Angioedema States” (Pharmaceuticals, 2020)", "key": {"ACE": {"target": "ACE", "parameters": "method as in 2 sources, one per row (each row's own in cited_ref): ref 35 = [35]; PMID 18201802; doi:10.1016/j.peptides.2007.12.004; 35. Morissette G. Couture J.P. Désormeaux A. Adam A. Marceau F. Lack of direct interaction between enalaprilat and the kinin B 1 receptors Peptides 2008 29 606 612 10.1016/j.peptides.2007.12.004 18201 ||| ref 36 = [36]; PMID 20452384; doi:10.1016/j.peptides.2010.04.027; 36. Koumbadinga G.A. Bawolak M.T. Marceau E. Adam A. Gera L. Marceau F. A ligand-based approach to investigate the expression and function of angiotensin converting enzyme in intact human umbilical ve", "settings": "cited from earlier work"}, "[1]": {"tested_on": "polyclonal anti-BK antibodies", "settings": "cited from earlier work; for cross-reactivity in the BK EIA as stated by the manufacturer: ref Phoenix Pharmaceuticals", "description": "BK and related peptides are formed locally close to their site of action (autacoids). They are extremely unstable and prone to artefactual formation when blood or tissues are sampled (for instance, following contact of blood with glass). Therefore, measuring kinins in venous blood is not really informative, contrasting with many useful peptide hormone dosages applied in endocrinology. A further challenge in concentration determination is that the BK sequence is embedded in that of precursor kininogens, with necessary separation if an antibody-based detection system is considered. Blais e ... || Figure 2 Cross-reactivity of the BK EIA with selected kinin sequences. […] Reproduce ..."}, "B2 receptor": {"tested_on": "B2 receptor", "settings": "cited from earlier work", "description": "(§1) (Figure 2). Thus, the EIA signal may be contaminated with the inert metabolite generated by aminopeptidase P, a significant peptidase that inactivates BK [17]. One way out is to couple the EIA quantification with chromatographic separation of kinins, such as HPLC [29]."}, "B1 receptor": {"tested_on": "B1 receptor", "settings": "cited from earlier work", "description": "as §1"}, "[2]": {"tested_on": "polyclonal anti-BK antibodies", "experiment": "Cross-reactivity of the BK EIA (Phoenix Pharmaceuticals) with kinin sequences", "format": "binding", "settings": "Figure 2 (reproduced in part from ref 12)", "description": "BK and related peptides are formed locally close to their site of action (autacoids). They are extremely unstable and prone to artefactual formation when blood or tissues are sampled (for instance, following contact of blood with glass). Therefore, measuring kinins in venous blood is not really informative, contrasting with many useful peptide hormone dosages applied in endocrinology. A further challenge in concentration determination is that the BK sequence is embedded in that of precursor kininogens, with necessary separation if an antibody-based detection system is considered. Blais et al. have reviewed these pitfalls and discussed extraction procedures and recovery in the context of the currently applied immunoassays. Professor A. Adam and co-workers developed separate competitive chemiluminescence enzyme immunoassays (EIAs) for BK and des-Arg^9-BK based on digoxygenin-conjugated peptides. Now several commercially available kits are being used, such as that from Phoenix Pharmaceuticals for BK (96-well plate format), and these have the advantage of world-wide reproducibility. The sensitivity of EIAs is excellent. […]\n(Figure 2). […] One way out is to couple the EIA quantification with chromatographic separation of kinins, such as HPLC [29]. […]"}, "[3]": {"settings": "BK 10 ng/mL, adherent HUVECs at 37 °C without serum, radioimmunoassay; cited from earlier work", "description": "(§2) ACE activity in serum or blood plasma corresponds, in healthy individuals, to a form of the protein shed from the vascular endothelial cells in an apparently regulated manner. ACE, membrane arginine carboxypeptidase (carboxypeptidase M), aminopeptidase P and other potential kininases are expressed at the surface of vascular endothelial cells. Primary cultures of human umbilical vein endothelial cells (HUVECs) are a standard model for which significant information is available. These cells express at their surface a high number of ACE molecule, as judged from the saturable binding of [^3 ..."}, "[4]": {"settings": "cited from earlier work", "method": "Samples were incubated at 37 °C under agitation for the indicated time periods before extraction and EIA determination of BK. The number of replicated from different healthy donors is indicated by “n”. […] Reproduced from. (B) Catabolism of BK ... || One stored plasma sample that was received in our laboratory was partly clotted and excluded from our previous studies. […] Secondly, the par ..."}, "[5]": {"settings": "BK added ex vivo to plasma of healthy subjects who took two daily doses of enalapril maleate; cited from earlier work"}, "[6]": {"experiment": "Degradation of BK by intact adherent HUVECs (Phoenix Pharmaceuticals BK EIA)", "method": "Samples were incubated at 37 °C under agitation for the indicated time periods before extraction and EIA determination of BK. The number of replicated from different healthy donors is indicated by “n”. […] Reproduced from.\nas §2, with “available.” for “available. These cells express at their surface a high number of ACE molecule, as judged from the saturable binding of [^3 ...”"}, "human B1 receptor": {"tested_on": "human B1 receptor", "settings": "cited from earlier work", "description": "The present paper reviews recent literature, contains some original results, and aims to illustrate the role of the analytical biochemistry of BK-related kinins in the understanding of angioedema (AE) mediated by kinins. The kallikrein –kinin system is made of many molecular participants present or secreted in blood plasma or present at the vascular endothelial surface (Figure 1). There are two different precursors of kinins, low and high molecular weight kininogens (LK, HK; abbreviations are defined in Table 1). Those proteins are encoded by alternative splicing of a single gene ..."}}, "note": "Ends that are not written are not given here. * marks the point of attachment. Biotin = O=C1N[C@H]2[C@H](CS[C@H]2CCCCC(=O)*)N1", "data": [{"compound": "C[C@H](N[C@@H](CCc1ccccc1)C(=O)O)C(=O)N1CCC[C@H]1C(=O)O", "note": "[[^3H]enalaprilat, enalaprilat]", "values": [{"measurement": "Kd", "setting": "ACE; saturable binding to intact HUVECs", "value": 0.23, "unit": "nM"}]}, {"compound": "biotinyl-BK (Biotin-RPPGFSPFR; UniProt P01042 381-389, looked up) [biotin-labelled BK tracer]", "values": [{"measurement": "cross-reactivity in the BK EIA as stated by the manufacturer", "setting": "[1]", "value": "fully cross-reacts"}]}, {"compound": "BK1–5: BK fragment produced by two cycles of ACE activity, more stable than most kinins (RPPGF; Bradykinin; UniProt P01042 381-385, looked up, fragment)", "values": [{"measurement": "activity on B2 receptors", "setting": "B2 receptor", "value": "inactive"}, {"measurement": "activity on B1 receptors", "setting": "B1 receptor", "value": "inactive"}]}, {"compound": "D-Arg-BK-Arg-Arg", "values": [{"measurement": "cross-reactivity in the BK EIA vs. BK", "setting": "[2]", "value": "loses much affinity"}, {"measurement": "cross-reactivity in the BK EIA vs. BK", "setting": "[2]; listed as Arg-BK-Arg-Arg", "value": "partial reactivity"}]}, {"compound": "RPPGFSPFR [BK, bradykinin]", "values": [{"measurement": "half-life", "setting": "[3]", "value": "about 50 min"}, {"measurement": "time in which BK was completely cleared", "setting": "[4]", "value": 5, "unit": "min"}, {"measurement": "half-life (first order decay)", "setting": "[4]; human", "value": 7.1, "unit": "min"}, {"measurement": "t1/2", "setting": "[4]; human", "value": 0.567, "unit": "min"}, {"measurement": "increase of BK t1/2 relative to the pre-treatment value", "setting": "[5]", "value": "~ 5 fold"}, {"measurement": "stability in wells without cells (nude plastic)", "setting": "[6]", "value": "stable"}, {"measurement": "half-life at 10 nM", "setting": "[6]; human, pH 7.4", "value": 12.3, "unit": "min"}]}, {"compound": "BK1–7: BK fragment produced by ACE (RPPGFSP; Bradykinin; UniProt P01042 381-387, looked up, fragment)", "values": [{"measurement": "activity on B2 receptors", "setting": "B2 receptor", "value": "inactive"}, {"measurement": "activity on B1 receptors", "setting": "B1 receptor", "value": "inactive"}]}, {"compound": "des-Arg^9-BK (RPPGFSPF; Bradykinin; UniProt P01042 381-388, looked up, fragment) [BK metabolite produced by arginine carboxypeptidases (kininase I)]", "values": [{"measurement": "affinity for the human form of the B1 receptor", "setting": "human B1 receptor", "value": "very weak affinity"}, {"measurement": "cross-reactivity in the BK EIA as stated by the manufacturer", "setting": "[1]", "value": "not"}]}, {"compound": "lysyl-bradykinin [Lys-BK]", "values": [{"measurement": "displacement of [3H]enalaprilat binding", "setting": "ACE; HUVECs", "value": "displaced"}, {"measurement": "cross-reactivity in the BK EIA as stated by the manufacturer", "setting": "[1]", "value": "fully cross-reacts"}]}, {"compound": "Lys-des-Arg^9-BK", "values": [{"measurement": "affinity for the human form of the B1 receptor", "setting": "human B1 receptor", "value": "subnanomolar affinity"}, {"measurement": "cross-reactivity in the BK EIA", "setting": "[1]; Phoenix Pharmaceuticals BK EIA", "value": "do not cross react at all"}]}]}
